Measured values taken from patent US20190307833A1, “TREATMENT OF AGE-RELATED MACULAR DEGENERATION WITH NEUROTROPHIC PEPTIDERGIC COMPOUND” (The Research Foundation for Mental Hygiene, Inc., priority 2018, published 2019).
*1 amine or outer side, *2 acyl side, *3 side chain or, on linkers, in order; H or OH if unused. Where a SMILES comes first, the peptide text is derived from it. [ ]: non-standard residue; d: D form. X1 = O=C(C1(N[*:1])C2CC3CC(C2)CC1C3)[*:2]

Columns and labels:
[1] = system: VEGF; experiment: VEGF immunofluorescence in retina and optic nerve of aged 3×Tg-AD mice; format: in vivo, mouse
Excerpt: (§1) At approximately 3 months of age, the female wild type and 3×Tg-AD mice were divided into five groups (n=6-7 mice per group) (FIG. 3A): (1) Wild type mice, age 3 months, without treatment (WT-3m); (2) 3×Tg-AD mice, age 3 months, without treatment (3×Tg-3m); (3) Wild type mice, age 3 months, treated with vehicle feed without P021 until the age of 21 months (WT-21m/Veh); (4) 3×Tg-AD-mice, age 3 months, treated with vehicle feed without P021 until the age of 21 months (3×Tg-21m/Veh); and (5) 3×Tg-AD-mice, age 3 months, treated with 60 nmol P021/g feed till the age of 21 months (3×Tg-21m/P021). The first two groups were the starting point and were employed as the matched young controls. P021 was formulated in the feed by Research Diets (New Brunswick, N.J., USA). Food consumption and body weight were recorded every 2 weeks and every month, respectively. The average mouse food consumption was ˜2.7 g feed/day.
(§2) The animals were anesthetized by using an overdose of avertin and then were transcardially perfused by using 0.1 M phosphate-buffered saline (PBS). Eyeballs were dissected out from the carcasses, immersion-fixed for 24 hours in 4% paraformaldehyde at 4° C., and then transferred to 70% alcohol for storage; in the case of mice, the eyeballs were prefixed by injecting 4% paraformaldehyde, followed by removal from the carcasses and immersion fixation as above. After the cornea and lens of the left eyes were removed, the remaining eye cup was embedded in paraffin with the orientation parallel to the optic nerve in longitudinal position. In all cases, 5-μm serial sections were cut by using a rotary microtome and were mounted on Superfrost Plus slides.
(§3) Paraffin sections were deparaffinized, rehydrated, and subjected to antigen retrieval by boiling for 20 minutes in 10 mM sodium citrate solution (pH 6.0). […] The area to be analyzed was selected and converted to grey scale, the threshold (Yen mode) was adjusted, and the area percentage of positive staining was measured for each section by using the NIH Image J software package. […]

[2] = system: total tau, P-tau, Aβ/APP; experiment: Tau, phosphorylated tau and Aβ/APP immunofluorescence in retina of aged rats; format: in vivo, rat
Method: (§4) Female aged (19˜21 months) Fisher rats (n=7) were given P021 per os by gavage (10 ml/kg body weight) once a day for 88 days. The dose of P021 was 500 nanomoles (289.15 microgram)/kg body weight daily. As controls, a second group of aged (19˜21 months) female rats (n=7) and a group of young adult female rats (2-3 months, n=7) were treated identically, but with normal saline (vehicle) only (FIG. 1A). Administration of vehicle and test compound was done at 7-9 AM daily in the pretesting phase.
as §2
(§5) Paraffin sections were deparaffinized, rehydrated, and subjected to antigen retrieval by boiling for 20 minutes in 10 mM sodium citrate solution (pH 6.0). Sections were then washed three times in 10 mM PBS for 15 minutes each and incubated in 0.3% Triton X-100 for 30 minutes. The sections were again washed in 10 mM PBS (15 minutes, three times each) and blocked in blocking solution (5% normal goat serum containing 0.1% Triton X-100 and 0.05% Tween 20 in PBS) for 45 minutes. Sections were then incubated overnight at 4° C. with the corresponding primary antibodies (see Table 1 for antibodies used in this study) diluted in the same blocking solution. After being washed three times for 15 minutes each with 10 mM PBS, sections were incubated with Alexa-Fluor 488-conjugated goat anti-mouse or anti-rabbit IgG secondary antibodies (1:1000) in 10 mM PBS with 0.05% Tween 20 for 2 hours at room temperature. Sections were subsequently washed one time and incubated with To-Pro (1:1000) for 15 minutes. After being washed three times for 15 minutes, sections were mounted and cover-slipped by using ProLong Gold anti-fade reagent. The absence of primary antibody control staining was included in each experiment as a negative control. Double immunofluorescence and To-Pro images were captured at equal camera exposure (for each antibody staining) with a Nikon EZ-C1 laser confocal imaging system. The area to be analyzed was selected and converted to grey scale, the threshold (Yen mode) was adjusted, and the area percentage of positive staining was measured for each section by using the NIH Image J software package. The staining area was averaged from 2-3 independent sections of each eye (n=5-7 different animals per group).

[3] = system: GFAP; experiment: GFAP immunofluorescence (astrogliosis) in retina of aged rats; format: in vivo, rat
Method: as §4
(§6) The animals were anesthetized by using an overdose of avertin and then were transcardially perfused by using 0.1 M phosphate-buffered saline (PBS). Eyeballs were dissected out from the carcasses, immersion-fixed for 24 hours in 4% paraformaldehyde at 4° C., and then transferred to 70% alcohol for storage; in the case of mice, the eyeballs were prefixed by injecting 4% paraformaldehyde, followed by removal from the carcasses and immersion fixation as above. […]
as §3

[4] = cited from earlier work
[5] = system: GFAP; experiment: GFAP immunofluorescence (astrogliosis) in retina of aged 3×Tg-AD mice; format: in vivo, mouse; details: 60 nmoles/g feed from 3 to 21 months of age
Excerpt: as §1, §2, §3

[6] = chronic oral treatment, aged rats and mice; cited from earlier work
[7] = Stability in artificial intestinal juice; format: in vitro ADME; details: simulated intestinal fluid; during 120 minutes; read-out: stable in artificial intestinal juice
Method: (§7) P021 is quite stable in artificial gastric juice (˜90% during 30 minutes) and in artificial intestinal juice (˜95% during 120 minutes).

[8] = system: rat and mouse models of AD; details: cited from earlier work
[9] = system: RPE of aged 3×Tg-AD mice; experiment: Auto-fluorescence of RPE lipofuscin granules and deposits in aged 3×Tg-AD mice; format: in vivo, mouse
Excerpt: as §1, §2
(§8) Paraffin sections were deparaffinized, rehydrated, and covered with coverslips with 0.1M PBS and then photographed by using a confocal microscope with red channel (λex=543, λem=590/50), as described previously. […] For quantification, the number of deposits between RPE and Cho in each section was manually counted by using a 20× or, where necessary, a higher magnification objective.

[10] = system: retina of aged Fisher rats; experiment: Retinal morphology by H & E staining in aged Fisher rats; format: in vivo, rat; details: 500 nmoles/kg/day by gavage, 3 months
Method: as §4, §2
(§9) Every 25th retinal section was deparaffinized and subjected to hematoxylin and eosin (H & E) staining to evaluate the morphology. The H & E staining images were captured with a light microscope using 2×, 40×, and 100× objective lenses. Because there is no significant difference between the ⅕th to the ⅓rd of the retina from the optic nerve head and the most peripheral part, the ⅕^th position of the retina from the optic nerve to the most peripheral part of the retina was chosen as the “central,” and the most peripheral part of the retina as “peripheral.” Rows of the outer nuclear layer (ONL) and the inner nuclear layer (INL) of the retina in each group (every 25th section, 3-5 sections per rat or mouse) were manually counted in three columns per image by using a 40× or, where necessary, a higher magnification objective. The thicknesses of the ONL and INL of the central and peripheral retina in each group (every 25th section from the optic nerve head, 2-3 sections per rat or mouse) were measured and quantified by using the ImageJ/NIH image analysis system.

[11] = system: total tau, P-tau, Aβ/APP; experiment: Tau, phosphorylated tau and Aβ/APP immunofluorescence in retina and optic nerve of aged 3×Tg-AD mice; format: in vivo, mouse
Excerpt: as §1, §2, §5

[12] = system: retina of aged 3×Tg-AD mice; experiment: Retinal morphology by H & E staining in aged 3×Tg-AD mice; format: in vivo, mouse; details: 60 nmoles/g feed from 3 to 21 months of age
Excerpt: as §1, §2, §9

[13] = system: Iba-1; experiment: Iba-1 immunofluorescence (microgliosis) in retina of aged rats; format: in vivo, rat; details: 500 nmoles/kg/day by gavage, 3 months
Method: as §4, §2
as §3, with “6.0). Sections were then washed three times in 10 mM PBS for 15 minutes each and incubated in 0.3% Triton X-100 for 30 minutes. The sections were again washed in 10 mM PBS (15 minutes, three times each) and blocked in blocking solution (5% normal goat serum containing 0.1% Triton X-100 and 0.05% Tween 20 in PBS) for 45 minutes.” for “6.0).”

[14] = system: RPE of aged Fisher rats; experiment: Auto-fluorescence of RPE lipofuscin granules and deposits in aged Fisher rats; format: in vivo, rat; details: 500 nmoles/kg/day by gavage, 3 months
Method: as §4, §6, §8

[15] = system: Iba-1; experiment: Iba-1 immunofluorescence (microgliosis) in retina of aged 3×Tg-AD mice; format: in vivo, mouse; details: 60 nmoles/g feed from 3 to 21 months of age
Excerpt: as §1, with “feed/day. […]” for “feed/day.”
as §3

[16] = Stability in artificial gastric juice; format: in vitro ADME; details: simulated gastric fluid; during 30 minutes; read-out: stable in artificial gastric juice
Method: as §7

[17] = BBB studies through a commercial service (APREDICA)
[18] = 3×Tg-AD mice, 60 nmoles/g feed from 3 to 21 months of age
[19] = 60 nmoles/g feed from 3 to 21 months of age, auto-fluorescence

With `CC(=O)N[C@@H](CC(=O)O)C(=O)NCC(=O)NCC(=O)N[C@@H](CC(C)C)C(=O)NC1(C(N)=O)C2CC3CC(C2)CC1C3` (stereo partly shown) [P021, Ac-DGGL^AG-NH2] (Ac-DGGL[X1]-NH2) the “VEGF staining in the optic nerve” value [1, 18] was “the size of the staining patch was decreased”, the “localization of VEGF-positive spots in the retina” value [1, 18] was “limited mainly to the GFL to the IPL” and the “expression of VEGF in retinas” value ([1]; aged mice) was “prevents increase in the expression of VEGF”. The “tau and Aβ pathologies in the retina” value ([2]; aged rats, 500 nmoles/kg/day by gavage, 3 months) was “prevented the increase in tau and Aβ pathologies”, the Aβ/APP immunoreactivity ([2]; retinas of aged rats) was “prevents increase of Aβ/APP immunoreactivity” and the “tau hyperphosphorylation at Ser-202/Thr-205 (AT8 site)” value ([2]; retinas of aged rats) was “prevents increase in the expression of tau hyperphosphorylation at Ser-202/Thr-205”. For the same compound, the “tau hyperphosphorylation at Ser-396/404 (PHF-1 site)” value ([2]; retinas of aged rats) was “prevents increase in the expression of tau hyperphosphorylation at Ser-396/404”, the “total tau immunoreactivity (R134d)” value ([2]; retinas of aged rats) was “prevents the increase in total tau immunoreactivity” and the “area percentage of GFAP-positive staining, central and peripheral retinas” value [3] was “drastically elevated in the central and peripheral retinas in ˜22- to 24-month-old/Veh rats as compared to ˜5- to 6-month-old/Veh rats and ˜22- to 24-month-old/P021 rats”. The GFAP staining ([3]; 500 nmoles/kg/day by gavage, 3 months, vs vehicle aged rats) was “reduced very much”, the oral bioavailability [4] was “orally bioavailable” and the “area percentage of GFAP from the NFL to the ONL in the central retina” value [5] was “reduced by P021 treatment to the levels in WT-3m/Veh and 3×Tg-3 m/Veh mice”. The “distribution of GFAP-positive staining” value [5] was “limited to the NFL and GCL”, the “area percentage of GFAP in the peripheral retina” value ([5]; similar trend) was “did not reach statistical significance” and the “general physical state (side effects)” value [6] was “did not reveal any worsening in general physical state”. The remaining at 2 h [7] was about 95%, the “cognitive impairment, synaptic deficit, neuroinflammation, tau and Aβ pathologies” value [8] was “rescue cognitive impairment, synaptic deficit, neuroinflammation, and tau and Aβ pathologies” and the “deposits between the RPE and Cho” value [9, 19] was “significantly reduced”. The “lipofuscin granules in RPE” value [9, 19] was “some small lipofuscin granules could still be observed”, the “RPE and BM abnormalities (AMD features) overall” value ([9]; P021 administered in the diet) was “Most of these AMD features were prevented” and the “RPE vacuolization and atrophy” value [10] was “no apparent abnormalities were observed”. The “arrangement of apical microvilli (AM) in RPE” value [10] was “showed improvement in the arrangement of AM”, the “decrease in rows and thickness of ONL, central vs peripheral retina” value [10] was “prevented these pathological changes more effectively in the central retina” and the “outer retinal folds and rosette-like structures in the central retina” value [10] was “No abnormal structure like this was observed”. For the same compound, the “rows and thickness of INL in the central retina” value [10] was “no detectable effect”, the “rows and thickness of ONL, P021-treated aged rats vs young rats” value [10] was “no significant difference between ˜5- to 6-month-old rats and P021-treated ˜22- to 24-month-old rats” and the “rows of INL in the peripheral retina” value [10] was “showed a clear trend to rescue the number of rows”. For the same compound, the “tau and Aβ pathologies in the retina” value [11, 18] was “prevented the increase in tau and Aβ pathologies”, the Aβ/APP immunoreactivity ([11]; retinas of aged mice) was “prevents increase of Aβ/APP immunoreactivity” and the “tau hyperphosphorylation at Ser-202/Thr-205 (AT8 site)” value ([11]; retinas of aged mice) was “prevents increase in the expression of tau hyperphosphorylation at Ser-202/Thr-205”. The “tau hyperphosphorylation at Ser-396/404 (PHF-1 site)” value ([11]; retinas of aged mice) was “prevents increase in the expression of tau hyperphosphorylation at Ser-396/404”, the “total tau immunoreactivity (R134d)” value ([11]; retinas of aged mice) was “prevents the increase in total tau immunoreactivity” and the “decrease in rows and thickness of INL in the central retina” value [12] was “chronic treatment with P021 prevented these changes”. For the same compound, the “decrease in rows and thickness of ONL in the central retina” value [12] was “prevented”, the “decrease in rows and thickness of ONL in the peripheral retina” value [12] was “not in the peripheral retina” and the “extension of ONL nuclei across the OPL into the INL, central retina” value [12] was “this pathology was prevented”. For the same compound, the “prevention of changes in rows and thickness of INL in the peripheral retina” value [12] was “did not reach significance”, the “rescue of INL thickness in the central retina” value [12] was “did not reach statistical significance” and the “relative Iba-1 immunostaining from the NFL to the OS, central and peripheral retinas” value [13] was “dramatically reduced”. For the same compound, the “Iba-1 staining from the ONL to the OS” value ([13]; especially central retina) was “no staining was found from the ONL to the OS”, the “localization of Iba-1 from the NFL to the OPL” value ([13]; vs vehicle aged rats) was “decrease in localization from the NFL to the OPL” and the “lipofuscin granules and deposition number between RPE and Cho” value [14] was “obviously decreased”. For the same compound, the “Iba-1 immunostaining (area percentage) in the peripheral retina” value [15] was “decreased in 3×Tg-21 m/P021 mice to the levels in WT-3 m/Veh and 3×Tg-3 m/Veh mice”, the “distribution of Iba-1-positive staining in the central retina” value [15] was “Iba-1-positive staining was only observed in the GCL” and the remaining at 0.5 h [16] was about 90%. For the same compound, the “crossing of the BBB” value [17] was “a sufficient amount of P021 crossed the BBB”.
